10 compounds from US6337345B1, “Insecticidal or miticidal combinations containing chlorfenapyr” (American Cyanamid Co., priority 1996, dated 2002) can be followed below.

Type in all cases: in vivo
In data set [1] the test system is female imagines of Kanzawa spider mite (Tetranychus kanzawai kishida) which had acquired a strong resistance to chlorfenapyr. As to the kind of experiment: Miticidal effect on female imagines of chlorfenapyr-resistant Kanzawa spider mite, leaf disk spray test. How it is done:
In this experiment, the miticidal effect against female imagines (adults) of Kanzawa spider mite (Tetranychus kanzawai kishida) which are registrant to chlorfenapyr is evaluated.
Round leaf disks (2 cm diameter) are cut out of a first leaf of kidney bean by a leaf punch and 4 sheets of the disks are placed on wet sanitary cotton in a plastic cup (8 cm diameter). On each leaf disk, 4 female imagines of Kanzawa spider mite (Tetranychus kanzawai kishida) which had acquired a strong resistance to chlorfenapyr are inoculated.
After the inoculation, chlorfenapyr and a compound(s) selected from group A are dispersed in water containing 200 ppm of an extender (Sorpol 3005X) and diluted such that a predetermined concentration of active ingredient is obtained. Each plastic cup is sprayed with 3.5 ml of a test solution with a rotary spray tower (Mizuho Scientific Co., Ltd.) and stored in a constant temperature chamber held at 25±1° C. (32 individuals are tested per concentration, 4−5 concentrations are evaluated per formulation, and 2 performances were repeated). Two days after treatment, the number of living and dead female imagines of Kanzawa spider mite (Tetranychus kanzawai kishida) which had acquired a strong resistance to chlorfenapyr is counted and the mortality (%) is calculated according the formula shown hereinbelow.
A co-toxicity coefficient is calculated by applying Sun and Johnson's formula (J. Econ. Ent., Vol 53, p. 887, […]) which is generally used to determine the degree of synergistic activity.
Co-toxicity coefficient=T^c [formula]
For T^c values greater than 100, the greater value indicates a stronger synergistic action. For a T^c value equal to 100, an additive action is indicated. For T^c values less than 100, the lesser value indicates a greater antagonistic action. A more detailed description of the calculation of the co-toxicity coefficient using the above-referenced Sun and Johnson formula follows.
The LC50 values of Test Compound A alone and Test Compound B alone and the LC50 value of the (A+B) mixture M is determined.
Actual toxicity index of mixture M=M^ti
Each LC50 value of effective ingredient A and effective ingredient B and the LC50 value of the mixture of A+B are used to determine the actual toxicity index as shown in the equation below. [formula]
Theoretical toxicity index of mixture M=Th.M^ti
Th.M^ti=(Toxicity index of A×%A in M+Toxicity index of B×%B in M)
Toxicity index of B=B^ti [formula]

Data set [2] has as its system susceptible strain of Kanzawa spider mite. As to the kind of experiment: LC50 against susceptible strain of Kanzawa spider mite. The text has this:
By comparison, the LC50 value for chlorfenapyr against a susceptible strain of Kanzawa spider mite is about 5 ppm.

Data set [3] relates to female imagines of Kanzawa spider mite (Tetranychus kanzawai kishida) which had acquired a strong resistance to chlorfenapyr. As to the kind of experiment: Miticidal effect on female imagines of chlorfenapyr-resistant Kanzawa spider mite, leaf disk spray test. As to conditions: resistant strain obtained by long artificial selection in the laboratory, compared with susceptible strain.

[4] abbreviates: single test compound, chlorfenapyr-resistant strain, female imago, mortality two days after treatment, probit analysis.
The mark [5] stands for this setting: single test compound, chlorfenapyr-resistant strain.

Consider `C/C1=C\C[C@@H]2C[C@@H](C[C@]3(CC[C@H](C)[C@@H](C)O3)O2)OC(=O)[C@@H]2CC[C@@H](O)[C@H]3OC/C(=C\C=C\[C@H](C)C1)[C@]32O` (mixture of isomers) [Milbemectin], for which, in data set [1] (setting [4]), the LC50 – broadly, the concentration lethal to half of the exposed cells or organisms – was determined as 0.28 ppm.

As for `Cc1ccc(N=CN(C)C=Nc2ccc(C)cc2C)c(C)c1` [Amitraz, 3-methyl-1,5-bis(2,4-xylyl)-1,3,5-triazapenta-1,4-diene], the “miticidal effect (in words)” value in data set [1] (setting [5]) is reported as “low effects”. The LC50 in data set [1] (setting [4]) came out at 200 ppm. With `CCC(C)c1cc([N+](=O)[O-])cc([N+](=O)[O-])c1OC(=O)C=C(C)C` (stereo not drawn) [Binapacryl, 2,4-dinitro-6-sec-butylphenyldimethyl-acrylate], the 50% lethal concentration (LC50) in data set [1] (setting [4]) was found to be 180 ppm.

`CCOCn1c(-c2ccc(Cl)cc2)c(C#N)c(Br)c1C(F)(F)F` [Chlorfenapyr, 4-bromo-2-(4-chloropheny)-1-(ethoxymethyl)-5-(trifuloromethyl)pyrrole-3-carbonitrile]: the figures for the median lethal concentration (LC50) in data set [1] (setting [4]) and in data set [2] were 1500 ppm and “about 5 ppm”, respectively. Besides, the “resistance to chlorfenapyr of the resistant strain” value in data set [3] is on record as roughly 300 fold. For `CN(C)C(=O)SCCCCOc1ccccc1` [Fenothiocarb, S-4-phenoxybutyl-dimethylthiocarbamate], in data set [1] (setting [4]), the median lethal concentration (LC50) came to 1000 ppm. In the case of `OC(c1ccc(Cl)cc1)(c1ccc(Cl)cc1)C(Cl)(Cl)Cl` [Kelthane (Dicofol)], the “miticidal effect (in words)” value in data set [1] (setting [5]) is on record as “high miticidal effect”. Further, the median lethal concentration (LC50) in data set [1] (setting [4]) worked out at 32 ppm. The matching figures for `CC(C)OC(=O)C(O)(c1ccc(Br)cc1)c1ccc(Br)cc1` [Phenisobromalate, isopropyl 4,4′-dibromobenzilate]: “low effects” and 280 ppm. Consider `CCOCCc1ccc(OCCNc2ncnc(CC)c2Cl)c(C)c1C` [Pyrimidifen, 5-chloro-N-{2-[2,3-dimethyl-4-(2-ethoxyethyl)phenoxy]ethyl}-6-ethyl-4-pyrimidinamine], for which the 50% lethal concentration (LC50) in data set [1] (in vivo) worked out at 10 ppm. In data set [1] (setting [5]), the “miticidal effect (in words)” value is given as “high miticidal effect”. Regarding `O=S(=O)(c1ccc(Cl)cc1)c1cc(Cl)c(Cl)cc1Cl` [Tetradifon, 2,4,5,4′-tetrachlorodiphenyisulfone], in data set [1] (setting [5]), the “miticidal effect (in words)” value is given as “low miticidal effect”. Further, the median lethal concentration (LC50) in data set [1] (setting [4]) amounted to 4900 ppm. Turning to “dinitromethylheptylphenyl crotonate [DPC]”, in data set [1] (setting [5]), the “miticidal effect (in words)” value was “low effects”. Besides, the median lethal concentration (LC50) in data set [1] (setting [4]) came out at 630 ppm.
